# “And” between values parts separate entries of the source, which are not always exact repeats. Equal entries are not always repeated. “Also recorded” adds a separate entry of the source.
# Key:
# [1] = target: T1, human α3β3γ2 GABAA receptor subtype (Homo sapiens, UniProt P18507+P28472+P34903); assay: Patch-clamp (Dynaflow) of GABA-mediated current in HEK-293 cells expressing α3β3γ2L GABAA receptor; format: cell-based
# T1 construct: expressed in transfected cells
# From the text: (§1) Aim: To investigate the effect of 3α-ethynyl-3β-hydroxy-5α-androstan-17-one on the GABAA receptor function both in absence and in presence of the GAMS tetrahydrodeoxycorticosterone (THDOC) by the Dynaflow™ system (Fluicell) on HEK-293 cells recombinantly expressing human α1β2γ2L GABAA receptor or human α3β3γ2 GABAA receptor subtype. In these tests the protocol was optimized to be similar to the physiological conditions in the synaptic cleft.
# (§2) Preparation of cell lines: Cell lines permanently expressing a functional human GABAA receptor was made as follows. The GABAA receptor subunits α1β2γ2L or α3β3γ2 including introduced Kozac sequences just before the start codons were subcloned into mammalian expression vectors comprising Geneticin, Hygromycin B, and Zeocin resistance, respectively. A HEK-293 cell line stably expressing the three GABAA receptor subunits (α1β2γ2L, α3β3γ2) separately for α1β2γ2L and α3β3γ2 subunit composition was produced by transfection of the subunits one at a time. The transfection was followed by selection with the appropriate antibiotics, cell separation with the use of subunit specific antibodies (β2 and γ2, Abcam, Upstate/Chemicon/Milipore, Sigma Aldrich), and production of single cell colonies. Produced cell lines were analysed with immunocytochemistry for the three GABAA receptor subunits, followed by selection of a suitable cell line showing for the GABAA receptor normal and good reactivity towards GABA and THDOC.
# (§3) HEK-293 cells (obtained from Pasteur Institute, Paris, France), permanently transfected with the human 1β2γ2L or α3β3γ2 GABAA receptor subtypes, were seeded at a density of 3×10^4/25 cm^2 in a culture flask. The transfected cells were used for patch-clamp experiments 3 days after seeding. When using the cells for patch-clamp experiments the cells were washed twice with oxygen-bubbled EC-solution (see below). About 5 mL EC was then added and the cells were kept in the incubator for about 15 minutes. After 15 minutes the cells came loose from the bottom of the flask and were separated by carefully sucking a couple of times with a Pasteur pipette.
# (§4) Dynaflow™ system with Resolve chips (Fluicell) was used for all patch-clamp experiments. The DF-16 Proll chips (Fluicell) used have non-sticky inserts for the wells. The channel width was 150 μm and the height 50 μm. The well volume was 280 μL. Run time at the […] is […]. The pump settings were as follow: Omnifix 2 mL syringe with inner diameter of 9.65 mm was used. The syringe pump flow rate for DF-16 Pro II chip was 26 μL/min.
# Steroids and GABA: GABA (Sigma Aldrich) was dissolved in EC-solution by ultrasound for about 40 minutes to the concentration of 10 mM in room temperature. All steroids were dissolved to the concentration of 6 mM in DMSO. The DMSO concentration was 0.1% in all end-solutions, including the wash solution (EC) and the solution with GABA alone. End-solutions are the solutions added into the wells of the chip.
# Electrophysioloqy: Patch electrodes were pulled from 1.5 mm O.D., 0.86 mm I.D. borosilicate capillary glass without filament. […] The intracellular solution consisted of (in mM): 140 Cs-gluconate, 3.0 NaCl, 1.2 MgCl2, 1.0 EGTA, 10 HEPES. pH was adjusted to 7.2 with CsOH. The extracellular (EC) solution used during recordings contained (in mM): 137 NaCl, 5.0 KCl, 1.0 CaCl2), 1.2 MgCl2, 10 HEPES, 10 glucose. pH was adjusted with NaOH to 7.4. All chemicals in the intracellular and extracellular solutions were obtained from Sigma-Aldrich. After compensating for the liquid junction potential, a steady holding potential of −17 mV was used in all experiments. In physiological conditions the HEK-293 has a resting potential at −40 mV and a low concentration of chloride ions inside the cell. By using the holding potential of −17 mV and the intracellular solution with low chloride ion concentration the chloride ions flux into the cell when the receptors are activated. […]
# [2] = target: T2, human α1β2γ2L GABAA receptor (Homo sapiens, UniProt P14867+P18507+P47870); assay: Patch-clamp (Dynaflow) of GABA-mediated current in HEK-293 cells expressing α1β2γ2L GABAA receptor; format: cell-based
# T2 construct: expressed in transfected cells
# T2 sequence (P14867 28-456): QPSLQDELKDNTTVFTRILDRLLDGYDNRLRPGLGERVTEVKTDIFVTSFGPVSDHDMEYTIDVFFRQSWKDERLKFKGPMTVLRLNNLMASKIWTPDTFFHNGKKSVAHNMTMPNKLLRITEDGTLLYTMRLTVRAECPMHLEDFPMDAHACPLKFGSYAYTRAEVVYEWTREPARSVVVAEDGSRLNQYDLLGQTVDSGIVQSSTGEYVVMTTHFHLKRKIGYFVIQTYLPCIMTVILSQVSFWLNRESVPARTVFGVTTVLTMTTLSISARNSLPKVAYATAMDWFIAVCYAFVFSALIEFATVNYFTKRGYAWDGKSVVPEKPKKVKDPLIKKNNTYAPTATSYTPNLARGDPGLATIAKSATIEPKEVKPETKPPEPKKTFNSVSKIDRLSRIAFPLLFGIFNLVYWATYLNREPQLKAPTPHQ
# T2 sequence (P47870 25-512 limits assumed): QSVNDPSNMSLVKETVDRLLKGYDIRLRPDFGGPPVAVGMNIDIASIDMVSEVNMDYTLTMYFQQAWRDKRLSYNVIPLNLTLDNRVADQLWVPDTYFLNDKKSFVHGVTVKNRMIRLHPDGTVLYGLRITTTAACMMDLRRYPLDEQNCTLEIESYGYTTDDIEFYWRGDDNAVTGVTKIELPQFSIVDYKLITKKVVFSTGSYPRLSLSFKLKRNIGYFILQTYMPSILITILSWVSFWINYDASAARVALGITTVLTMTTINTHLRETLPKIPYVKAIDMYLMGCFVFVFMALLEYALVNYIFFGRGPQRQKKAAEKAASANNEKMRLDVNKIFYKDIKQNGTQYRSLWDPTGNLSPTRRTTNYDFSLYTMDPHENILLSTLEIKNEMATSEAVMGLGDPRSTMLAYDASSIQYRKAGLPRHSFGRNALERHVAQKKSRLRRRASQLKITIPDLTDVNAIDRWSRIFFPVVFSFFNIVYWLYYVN
# T2 sequence (P18507 40-475): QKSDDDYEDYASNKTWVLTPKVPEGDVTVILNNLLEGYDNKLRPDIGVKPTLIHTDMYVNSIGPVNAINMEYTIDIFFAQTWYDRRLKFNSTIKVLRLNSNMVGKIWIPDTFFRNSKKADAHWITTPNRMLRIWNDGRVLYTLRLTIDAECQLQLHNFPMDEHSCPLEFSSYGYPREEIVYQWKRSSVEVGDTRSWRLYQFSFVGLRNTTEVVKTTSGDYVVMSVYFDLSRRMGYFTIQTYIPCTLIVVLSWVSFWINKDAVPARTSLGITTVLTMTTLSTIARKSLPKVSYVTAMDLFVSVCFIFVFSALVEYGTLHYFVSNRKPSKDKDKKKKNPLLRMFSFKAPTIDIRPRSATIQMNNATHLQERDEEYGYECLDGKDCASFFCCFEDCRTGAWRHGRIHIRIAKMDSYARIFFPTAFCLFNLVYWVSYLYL
# From the text: as §1, §2, §3, §4
# Steroids and GABA: GABA (Sigma Aldrich) was dissolved in EC-solution by ultrasound for about 40 minutes to the concentration of 10 mM in room temperature. All steroids were dissolved to the concentration of 6 mM in DMSO. […]
# [3] = Weight increase in growing male rats, experiment 2 (10 days s.c., with progesterone + estradiol); format: in vivo, Male Wistar rats; settings: for Weight difference compared to vehicle (Mean±SE) / Weight difference versus E+P control rats (Mean±SE): 10 days, n=9
# Protocol: Animals: Male Wistar rats were kept in group cages, with three animals per cage, from delivery and throughout the period of experiments. The individual animals were marked so that they could be identified throughout the experiment duration. The animals weight an average of 152 g upon arrival. A reversed light dark (12:12 h) cycle was used with the dark period onset at 0600 hrs. Altogether fifty-six (56) rats were used in this study (experiment 1+2). The animals were delivered from the breeder Taconic (Denmark). The study protocol was approved by the Regional Ethics Committee of Umea University, Sweden.
# Feeding: Standard chow and water were available ad libitum. A reversed 12-h dark-light cycle with lights off at 10.00 am and lights on at 22.00 pm was used. For identification, the rats were marked with a permanent marker on the tail. To avoid the endogenous allopregnanolone fluctuations that are present in the oestrous cycle of female rats, male rats were chosen (Frye et al. 2000). The animals were allowed to acclimatize for at least 3 weeks before start of the experimental sessions. During this period, the rats were repeatedly handled and allowed habituation to the new environment and to all new procedures, to minimize stress during the experiments.
# After 14 days of triad housing, handling and injection training of the animals, the animals were treated for 5 days with IV injections in experiment 1 and 10 days with a daily subcutaneous injection of the assigned treatment in experiment 2 (Table 3 and 4). The injections were given at 08.00 every morning. The animals were weighed the day before onset of the treatment and at the last day of injection i.e. on the 5th or 10th day of treatment. Weight was taken at the time of the last injection. […] The results are shown in FIG. 2 (experiment 1) and FIG. 3 (experiment 2), respectively.
# GABAA receptor = settings: taught in WO 09/142594, table 3; cited from earlier work
# [4] = target: T3, human α4β3δ GABAA receptor (Homo sapiens, UniProt O14764+P28472+P48169); assay: Patch-clamp (Dynaflow) of GABA-mediated current at α4β3δ GABAA receptor; format: cell-based; settings: agonist effect
# T3 construct: expressed in transfected cells
# T3 sequence (P48169 36-554): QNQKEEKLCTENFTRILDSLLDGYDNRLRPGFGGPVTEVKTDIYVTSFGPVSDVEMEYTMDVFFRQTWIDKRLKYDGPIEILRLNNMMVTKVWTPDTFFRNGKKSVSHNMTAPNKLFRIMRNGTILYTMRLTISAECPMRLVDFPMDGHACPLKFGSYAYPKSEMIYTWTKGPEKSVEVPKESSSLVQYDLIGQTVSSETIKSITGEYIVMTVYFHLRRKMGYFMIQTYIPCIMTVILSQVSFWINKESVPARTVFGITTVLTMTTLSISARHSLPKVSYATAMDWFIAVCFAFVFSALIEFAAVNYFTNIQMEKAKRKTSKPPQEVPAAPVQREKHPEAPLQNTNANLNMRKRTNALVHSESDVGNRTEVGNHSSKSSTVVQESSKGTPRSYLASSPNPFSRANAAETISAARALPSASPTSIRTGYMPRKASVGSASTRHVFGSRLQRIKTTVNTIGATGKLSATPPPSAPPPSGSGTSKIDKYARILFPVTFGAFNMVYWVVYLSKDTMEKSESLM
# T3 sequence (P28472 26-473): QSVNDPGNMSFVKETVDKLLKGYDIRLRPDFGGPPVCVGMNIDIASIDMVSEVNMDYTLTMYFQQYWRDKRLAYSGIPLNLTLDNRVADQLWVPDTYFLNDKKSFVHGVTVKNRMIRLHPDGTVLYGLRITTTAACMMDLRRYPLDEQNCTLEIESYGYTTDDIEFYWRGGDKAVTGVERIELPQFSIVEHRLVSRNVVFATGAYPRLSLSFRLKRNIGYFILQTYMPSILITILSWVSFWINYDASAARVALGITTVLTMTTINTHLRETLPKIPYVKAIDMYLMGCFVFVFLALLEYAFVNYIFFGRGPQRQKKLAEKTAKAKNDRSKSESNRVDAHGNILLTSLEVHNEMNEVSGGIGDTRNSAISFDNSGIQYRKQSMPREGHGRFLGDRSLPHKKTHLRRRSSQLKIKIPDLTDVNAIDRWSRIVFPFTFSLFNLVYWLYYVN
# T3 sequence (O14764 17-452 limits assumed): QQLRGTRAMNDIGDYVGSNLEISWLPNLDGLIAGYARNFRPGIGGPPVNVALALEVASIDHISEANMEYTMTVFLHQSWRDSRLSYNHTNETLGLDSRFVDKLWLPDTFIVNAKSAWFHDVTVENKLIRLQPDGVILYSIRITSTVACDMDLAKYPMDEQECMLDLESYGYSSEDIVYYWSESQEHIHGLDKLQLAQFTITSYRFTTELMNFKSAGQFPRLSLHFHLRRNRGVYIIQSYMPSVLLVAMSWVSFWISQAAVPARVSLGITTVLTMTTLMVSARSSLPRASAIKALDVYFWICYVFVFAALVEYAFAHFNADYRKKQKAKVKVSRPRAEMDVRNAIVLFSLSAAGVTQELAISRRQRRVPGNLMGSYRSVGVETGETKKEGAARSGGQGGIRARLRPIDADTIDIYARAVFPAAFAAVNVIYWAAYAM
# From the text: (§5) Aim: the aim of this project was to study the effect of 3α-ethynyl-3β-hydroxy-5α-androstan-17-one and the positive GABAA receptor modulator THDOC on GABA-mediated current response, at human α1β2γ2L, α2β3γ2S, α4β3δ and α5β3γ2L subunit GABAA receptors.
# (§6) Study design: The current response mediated by chloride ion flux through the GABAA receptors expressing the α1β2γ2L, α2β3γ2S, α3β3γ2L, α4β3δ and α5β3γ2L subunit was studied with the use of patch clamp technique combined with the Dynaflow™ application system and the Resolve chip. This provides rapid applications of and removal of substances. The material, protocol and methods were identical to the ones used in Examples 1 and 2. 1 μM 3α-ethynyl-3β-hydroxy-5α-androstan-17-one was studied on GABA mediated current response at α1β2γ2L, α2β3γ2S, α4β3δ and α5β3γ2L GABAA receptor subtypes (FIG. 4, Table 6). In addition, the effect of 1-1000 nM THDOC was studied on GABA mediated current response at the α1β2γ2L, α3β2γ2, and α5β3γ2L receptor subtypes (Table 8). The binding site of THDOC is in the […] region of the receptor. To achieve stable response, the cells were exposed to steroid (THDOC) in 20 seconds before GABA application.
# (§7) The amount GABA used depends on the receptor subtype intra or extra-synaptic type, α1β2γ2L=30 μM; α2β3γ2S=45 μM; α4β3δ=1 μM and α5β3γ2L=0.3 μM GABA.
# [5] = target: T4, human α5β3γ2L GABAA receptor (Homo sapiens, UniProt P18507+P28472+P31644); assay: Patch-clamp (Dynaflow) of GABA-mediated current at α5β3γ2L GABAA receptor; format: cell-based
# T4 construct: expressed in transfected cells
# T4 sequence (P31644 32-462): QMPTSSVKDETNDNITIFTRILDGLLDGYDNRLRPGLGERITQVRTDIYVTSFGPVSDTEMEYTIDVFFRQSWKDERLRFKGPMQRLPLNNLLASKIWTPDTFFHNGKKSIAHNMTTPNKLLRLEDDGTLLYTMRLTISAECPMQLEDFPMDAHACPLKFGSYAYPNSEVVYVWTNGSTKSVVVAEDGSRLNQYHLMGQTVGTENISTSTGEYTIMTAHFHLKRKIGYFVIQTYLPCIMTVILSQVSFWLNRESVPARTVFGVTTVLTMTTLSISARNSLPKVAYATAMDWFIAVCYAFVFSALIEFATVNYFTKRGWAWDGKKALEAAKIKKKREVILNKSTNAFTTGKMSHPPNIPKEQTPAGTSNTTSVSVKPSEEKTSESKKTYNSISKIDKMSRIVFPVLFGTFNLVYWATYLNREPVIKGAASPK
# T4 sequence (P28472 26-473): as the sequence (P28472 26-473) above
# T4 sequence (P18507 40-475): as the sequence (P18507 40-475) above
# From the text: as §5, §6, §7
# (§8) THDOC: The following standard protocol was used for the different receptor subtypes: • α1β2γ2L: 20 s preincubation of 30-1000 nM THDOC 40 ms application of 30 μM GABA±steroids. • α3β2γ2: 20 s preincubation of 1-1000 nM THDOC followed by 1 s application of 100 μM GABA±steroids. • α5β3γ2L: 20 s preincubation of 30-1000 nM THDOC followed by 6 s application of 0.3 μM GABA±steroids.
# [6] = target: α3β2γ2 GABAA receptor subtype (Homo sapiens, UniProt P28472+P34903); assay: Patch-clamp (Dynaflow), THDOC on GABA-mediated current at α3β2γ2 receptor subtype; format: cell-based; settings: 1-1000 nM THDOC 20 s preincubation, 100 μM GABA 1 s, read-out: Emax for effect on GABA mediated current response
# Sequence of α3β2γ2 GABAA receptor subtype (P34903 29-492): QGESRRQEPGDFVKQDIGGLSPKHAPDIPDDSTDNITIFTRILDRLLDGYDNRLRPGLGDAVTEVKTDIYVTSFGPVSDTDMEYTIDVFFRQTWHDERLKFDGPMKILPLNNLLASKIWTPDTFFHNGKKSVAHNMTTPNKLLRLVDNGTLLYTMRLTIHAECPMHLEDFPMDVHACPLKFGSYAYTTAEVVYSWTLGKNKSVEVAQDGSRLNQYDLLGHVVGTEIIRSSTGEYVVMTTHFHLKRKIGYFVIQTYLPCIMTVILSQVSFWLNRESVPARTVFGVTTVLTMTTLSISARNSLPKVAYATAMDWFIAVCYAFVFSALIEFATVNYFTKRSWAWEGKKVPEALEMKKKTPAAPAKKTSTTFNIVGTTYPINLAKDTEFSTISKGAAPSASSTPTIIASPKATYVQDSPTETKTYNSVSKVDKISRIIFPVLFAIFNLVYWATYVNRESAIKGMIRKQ
# Sequence of α3β2γ2 GABAA receptor subtype (P28472 26-473): as the sequence (P28472 26-473) above
# Sequence of α3β2γ2 GABAA receptor subtype (P18507 40-475 partner): as the sequence (P18507 40-475) above
# Protocol: as §6, §8
# [7] = 1 mg/kg s.c. + 5 mg/kg progesterone + 10 μg/kg 17β-estradiol
# [8] = 5 mg/kg s.c. + 5 mg/kg progesterone + 10 μg/kg 17β-estradiol
# T1 sequence (P34903 29-492): as the sequence (P34903 29-492) above
# T1 sequence (P28472 26-473): as the sequence (P28472 26-473) above
# T1 sequence (P18507 40-475): as the sequence (P18507 40-475) above
smiles,measurement,setting,value
C#C[C@]1(O)CC[C@@]2(C)[C@@H](CC[C@@H]3[C@@H]2CC[C@]2(C)C(=O)CC[C@@H]32)C1 [3α-ethynyl-3β-hydroxy-5α-androstan-17-one],"Effect on 100 μM GABA-mediated current response, Mean ± SEM %","[1]; 0.003 μM compound + 100 μM GABA, α3β3γ2L",+2.5 ± 2.9%
same,"Own effect, Baseline shift","[1]; 0.003 μM compound, absence of GABA, α3β3γ2L",−1.0 ± 0.4 pA
same,"Effect on 100 μM GABA-mediated current response, Mean ± SEM %","[1]; 0.01 μM compound + 100 μM GABA, α3β3γ2L",−3.0 ± 2.3%
same,"Own effect, Baseline shift","[1]; 0.01 μM compound, absence of GABA, α3β3γ2L",−0.7 ± 0.7 pA
same,"Effect on 100 μM GABA-mediated current response, Mean ± SEM %","[1]; 0.03 μM compound + 100 μM GABA, α3β3γ2L",−2.0 ± 1.0%
same,"Own effect, Baseline shift","[1]; 0.03 μM compound, absence of GABA, α3β3γ2L",−0.8 ± 1.2 pA
same,"Effect on 100 μM GABA-mediated current response, Mean ± SEM %","[1]; 0.1 μM compound + 100 μM GABA, α3β3γ2L",−4.0 ± 3.0%
same,"Own effect, Baseline shift","[1]; 0.1 μM compound, absence of GABA, α3β3γ2L",−1.0 ± 0.8 pA
same,"Effect on 100 μM GABA-mediated current response, Mean ± SEM %","[1]; 0.3 μM compound + 100 μM GABA, α3β3γ2L",−10% and −10 ± 2.3%
same,"Own effect, Baseline shift","[1]; 0.3 μM compound, absence of GABA, α3β3γ2L",+0.9 ± 0.5 pA
same,"Own effect, Baseline shift","[1]; 1 μM compound, absence of GABA, α3β3γ2L",−1.2 ± 0.5 pA
same,"Effect on 100 μM GABA-mediated current response, Mean ± SEM %","[1]; 3 μM compound + 100 μM GABA, α3β3γ2L",−74 ± 0.9%
same,"Own effect, Baseline shift","[1]; 3 μM compound, absence of GABA, α3β3γ2L",−0.4 ± 0.4 pA
same,"Effect on 100 μM GABA-mediated current response, Mean ± SEM %","[1]; 10 μM compound + 100 μM GABA, α3β3γ2L",−76 ± 1.9%
same,"Own effect, Baseline shift","[1]; 10 μM compound, absence of GABA, α3β3γ2L",+1.1 + 2.4 pA
same,Activation of the α3β3γ2L GABAA receptor in absence of GABA,"[1]; 0.003-10 μM, absence of GABA",do not activate
same,Imax on 100 μM GABA-mediated current response,"[1]; 0.003-10 μM, best fit curve, α3β3γ2L",−78%
same,IC50,"[1]; 0.003-10 μM, best fit curve, α3β3γ2L, read-out: IC50 on 100 μM GABA-mediated current response",800 nM
same,Antagonism of 100 nM THDOC-enhancement at α1β2γ2,[2]; 1 μM compound + THDOC + GABA,no significant agonistic or antagonistic effect; also recorded: No effect
same,Weight difference compared to vehicle (Mean±SE),[3]; [7],-33 ± 4.4 g
same,Weight difference versus E+P control rats (Mean±SE),[3]; [7],-23.9 ± 4.4 g
same,Weight difference compared to vehicle (Mean±SE),[3]; [8],-29.6 ± 5.2 g
same,Weight difference versus E+P control rats (Mean±SE),[3]; [8],-20.4 ± 5.2 g
same,Difference in weight after 10 days of treatment compared to vehicle,"[3]; s.c., 10 days of treatment",over 20%
same,Effect as a GAMSA or GAMS,GABAA receptor,no effect
"C[C@]12CC[C@@H](O)C[C@@H]1CC[C@@H]1[C@@H]2CC[C@]2(C)[C@@H](C(=O)CO)CC[C@@H]12 [THDOC, 3α, 21-dihydroxy-5α-pregnan-20-one]",Emax,"[2]; HEK293, α1β2γ2L, 30-1000 nM THDOC 20 s preincubation, 30 μM GABA 40 ms, read-out: Emax for effect on GABA mediated current response",115%
same,Effect on GABA-mediated current at α1β2γ2L (in words),[2]; agonist effect,significantly enhances
same,EC50,"[2]; α1β2γ2L, 30-1000 nM THDOC 20 s preincubation, 30 μM GABA 40 ms, read-out: EC50 for effect on GABA mediated current response",70 nM
same,Effect on GABA-mediated current at α4β3δ (in words),[4],significantly enhances
same,Effect on GABA-mediated current at α5β3γ2L (in words),[5]; agonist effect,significantly enhances
same,EC50,"[5]; α5β3γ2L, 30-1000 nM THDOC 20 s preincubation, 0.3 μM GABA 6 s, read-out: EC50 for effect on GABA mediated current response",68 nM
same,Emax,"[5]; α5β3γ2L, 30-1000 nM THDOC 20 s preincubation, 0.3 μM GABA 6 s, read-out: Emax for effect on GABA mediated current response",131%
same,Emax,[6],80%
